Test results taken from PMC4955148, “Identification and functional characterization of novel xylose transporters from the cell factories Aspergillus niger and Trichoderma reesei” (Biotechnology for Biofuels, 2016).

Test system: T1, AnXltB
T1 construct: gene xltB; whole-cell uptake
Assay: […]-sugar initial uptake ([…] s) in yeast, Michaelis-Menten fit
Assay type: cell-based, Aspergillus niger
Details: labelled compound; transport into intact cells; 100 mM PBS pH 6.5, 30 °C; read-out: Xylose initial uptake kinetics / K m

For `OC1OC[C@@H](O)[C@H](O)[C@H]1O` (stereo partly shown) [xylose], the Km was 15 ± 4.5 mM.
